From patent US20090018111A1, “Novel Antimicrobial Medicament” (priority 2004, published 2009)
Like-named read-outs stand apart in the source and are kept apart here.

How the values were obtained:
P. aeruginosa TL-2667 = assay: Sensitivity test (agar dilution); type: cell-based, Pseudomonas aeruginosa; conditions: Pseudomonas aeruginosa, P. aeruginosa TL-2667
Method: (§1) The antibacterial activities were tested against various 18 bacteria (27 standard strains) which are representative bacteria caused clinically infectious disease (Staphylococcus aureus 3 strains, Staphylococcus epidermidis 1 strain, Micrococcus luteus 1 strain, Streptococcus pyogenes 1 strain, Enterococcus faecalis 1 strain, Enterococcus faecium 1 strain, Bacillus subtilis 1 strain, Escherichia coli 3 strains, Klebsiella pneumoniae 1 strain, Proteus mirabilis 1 strain, Proteus vulgaris 2 strains, Pseudomonas aeruginosa 3 strains, Serratia marcescens 2 strains, Enterobacter aerogenes 1 strain, Stenotrophomonas maltophilia 1 strain, Enterobacter cloacae 1 strain, Citrobacter freundii 1 strain, Moraxella catarrhalis 2 strains).
(§2) According to the standard method of Japan Chemotherapeutic Society (Chemotherapy, vol. […], p 76-79 (1981)) the test was carried out using the agar dilution method. After dissolving test samples in distilled water, agar medium containing the test samples was prepared in such a manner that the final concentration became twice serial dilution by pouring serially diluted combination drug solution or a single drug solution into agar medium. As agar medium was used Mueller Hinton Agar medium (MHA). Then, each strain was cultivated over night at 37° C. in an incubator and suspended in buffered saline solution with gelatin (BSG) in the concentration of about 10^6 CFU/ml. The suspension (about 5 μl) containing test strains was inoculated to the medium containing the test samples by Micro Planter.
(§3) When the sample is subjected to sensitivity test, this mixed solution was diluted by twice serial dilution method.
(§4) Furthermore, when the drug is solely used, each test sample was used as it is, and diluted by twice serial dilution method from the maximum concentration to the minimum concentration.
(§5) FIC index based on MIC value was calculated. […] Namely, when FIC index calculated by the following formula is equal or less than 1, the enhanced effect of the combination drug in said ratio is considered as positive. When FIC index is over 1, the enhanced effect of the combination drug in said ratio is considered as negative.
(§6) Formula of FIC index: FIC index=(MIC of Drug A in combination/MIC of Drug A alone)+(MIC of Drug B in combination/MIC of Drug B alone) N.C. in tables means being not calculated.

[1] = system: S. aureus SP-7928 (homo-MRSA); assay: Sensitivity test (agar dilution); type: cell-based, Staphylococcus aureus; conditions: Staphylococcus aureus, MRSA, S. aureus SP-7928 (homo-MRSA)
Method: as §1, §2, §3, §4, §5, §6

[2] = system: S. aureus MS94088 (hetero-MRSA); assay: Sensitivity test (agar dilution); type: cell-based, Staphylococcus aureus; conditions: Staphylococcus aureus, MRSA, S. aureus MS94088 (hetero-MRSA)
Method: as §1, §2, §3, §4, §5, §6

S. aureus 209P = assay: Sensitivity test (agar dilution); type: cell-based, Staphylococcus aureus; conditions: Staphylococcus aureus, 209P, S. aureus 209P
Method: as §1, §2, §3, §4, §5, §6

S. marcescens X 100 = assay: Sensitivity test (agar dilution); type: cell-based, Serratia marcescens; conditions: Serratia marcescens, S. marcescens X 100
Method: as §1, §2, §3, §4, §5, §6

S. marcescens GN6473 = assay: Sensitivity test (agar dilution); type: cell-based, Serratia marcescens; conditions: Serratia marcescens, S. marcescens GN6473
Method: as §1, §2, §3, §4, §5, §6

M. luteus ATCC9341 = assay: Sensitivity test (agar dilution); type: cell-based, Micrococcus luteus; conditions: Micrococcus luteus, M. luteus ATCC9341
Method: as §1, §2, §3, §4, §5, §6

C. freundii GN346 = assay: Sensitivity test (agar dilution); type: cell-based, Citrobacter freundii; conditions: Citrobacter freundii, C. freundii GN346
Method: as §1, §2, §3, §4, §5, §6

Str. pyogenes Cook = assay: Sensitivity test (agar dilution); type: cell-based, Streptococcus pyogenes; conditions: Streptococcus pyogenes, Str. pyogenes Cook
Method: as §1, §2, §3, §4, §5, §6

P. vurgalis OX-19 = assay: Sensitivity test (agar dilution); type: cell-based, Proteus vulgaris; conditions: Proteus vulgaris, P. vurgalis OX-19
Method: as §1, §2, §3, §4, §5, §6

P. vulgaris GN7919 = assay: Sensitivity test (agar dilution); type: cell-based, Proteus vulgaris; conditions: Proteus vulgaris, P. vulgaris GN7919
Method: as §1, §2, §3, §4, §5, §6

E. coli ML1410 RP4 = assay: microbe, parasite or virus in culture; type: cell-based, Escherichia coli; conditions: Escherichia coli, E. coli ML1410 RP4
Method: as §1, §2, §3, §4, §5, §6

E. faecalis ATCC19433 = assay: Sensitivity test (agar dilution); type: cell-based, Enterococcus faecalis; conditions: Enterococcus faecalis, E. faecalis ATCC19433
Method: as §1, §2, §3, §4, §5, §6

[3] = Concomitant (DRPM:SM = 1:1), read-out: MIC concomitant
[4] = drug alone, read-out: MIC alone

## C[C@@H](O)[C@H]1C(=O)N2C(C(=O)O)=C(S[C@@H]3CN[C@H](CNS(N)(=O)=O)C3)[C@H](C)[C@H]12 [DRPM, doripenem]
P. aeruginosa TL-2667; TL2667, Concomitant (DRPM:SM = 1:1), read-out: MIC concomitant
  MIC: 2 µg/mL
P. aeruginosa TL-2667; TL2667, drug alone, read-out: MIC alone
  MIC: 2 µg/mL
[1]; [3]
  MIC: 1 µg/mL
[1]; [4]
  MIC: 32 µg/mL
[2]; [3]
  MIC: 0.25 µg/mL
[2]; [4]
  MIC: 2 µg/mL
S. aureus 209P; [3]
  MIC: 0.004 µg/mL
S. aureus 209P; [4]
  MIC: 0.016 µg/mL
S. marcescens X 100; X100, Concomitant (DRPM:SM = 1:1), read-out: MIC concomitant
  MIC: 0.031 µg/mL
S. marcescens X 100; X100, drug alone, read-out: MIC alone
  MIC: 0.031 µg/mL
S. marcescens GN6473; GN6473, Concomitant (DRPM:SM = 1:1), read-out: MIC concomitant
  MIC: 0.063 µg/mL
S. marcescens GN6473; GN6473, drug alone, read-out: MIC alone
  MIC: 0.063 µg/mL
M. luteus ATCC9341; ATCC9341, Concomitant (DRPM:SM = 1:1), read-out: MIC concomitant
  MIC: ≤ 0.002 µg/mL
M. luteus ATCC9341; ATCC9341, drug alone, read-out: MIC alone
  MIC: 0.031 µg/mL
C. freundii GN346; GN346, Concomitant (DRPM:SM = 1:1), read-out: MIC concomitant
  MIC: 0.063 µg/mL
C. freundii GN346; GN346, drug alone, read-out: MIC alone
  MIC: 0.063 µg/mL
Str. pyogenes Cook; [3]
  MIC: ≤ 0.002 µg/mL
Str. pyogenes Cook; [4]
  MIC: ≤ 0.002 µg/mL
P. vurgalis OX-19; OX19, Concomitant (DRPM:SM = 1:1), read-out: MIC concomitant
  MIC: 0.031 µg/mL
P. vurgalis OX-19; OX19, drug alone, read-out: MIC alone
  MIC: 0.031 µg/mL
P. vulgaris GN7919; GN7919, Concomitant (DRPM:SM = 1:1), read-out: MIC concomitant
  MIC: 0.063 µg/mL
P. vulgaris GN7919; GN7919, drug alone, read-out: MIC alone
  MIC: 0.125 µg/mL
E. coli ML1410 RP4; ML1410RP4, read-out: MIC alone, drug alone
  MIC: 0.031 µg/mL
E. coli ML1410 RP4; ML1410RP4, read-out: MIC concomitant, Concomitant (DRPM:SM = 1:1)
  MIC: 0.031 µg/mL
E. faecalis ATCC19433; ATCC19433, Concomitant (DRPM:SM = 1:1), read-out: MIC concomitant
  MIC: 1 µg/mL
E. faecalis ATCC19433; ATCC19433, drug alone, read-out: MIC alone
  MIC: 4 µg/mL
